What was measured:
Format in all cases: physicochemical
[1] = Stability of fluorous alkoxysilyl ethers in CH2Cl2/trifluoroacetic acid (5%), remaining ether analysed by LC-MS; settings: aliquots quenched with MeOH/pyridine (20:1)
Procedure: Fluorous alkoxysilyl ethers (34a,b, 37a) were each dissolved in a mixture of CH2Cl2/trifluoroacetic acid (5%), and aliquots of these solutions were quenched with MeOH/pyridine (20:1). The quenched reaction mixtures were analyzed for remaining 34a,b and 37a by LC-MS (Liquid chromatography-mass spectrometry). Reactions and quenching were performed on a HP 7868 solution phase synthesizer. Analysis of quenched samples was done with a HP 1100 series LC/MS. Samples eluted were compared with unreacted control samples. (Rt [min]: 2.6 (34a), 2.9 (34b), 2.3 (37a); Novapak C18, 3.9×150 mm, 1.2 mL/min, MeOH as eluent).
(§1) The stability of these alkoxysilyl ethers appeared to be determined by the steric bulk around the silicon atom. While 34a was not very stable (t1/2˜6 min) under the acidic reaction conditions, 34b (t1/2˜4 h) was moderately stable, and the tert-butyl-phenyl-1H,1H,2H,2H-heptadecafluorodecyloxysilyl ether 37a (t1/2>>6 h) was very stable. […] As a result of the enhanced electrophilicity of the silicon atom in bis-alkoxysilyl ethers, the latter are generally more labile toward nucleophiles and bases than either the TBDPS or the tert-butyldimethylsilyl (TBDMS) groups. […] In contrast, the stability under protic acidic conditions in 5% p-TsOH/MeOH (t1/2˜40 min) is more limited.
Reactions and quenching were performed on a HP 7868 solution phase synthesizer. […]

[2] = Stability under protic acidic conditions in 5% p-TsOH/MeOH
Procedure: as §1

[3] = Stability in THF-d8 / 0.25 M NaOD (3:1), determined by 1H NMR; settings: THF-d8 and 0.25 M NaOD (3:1)
Procedure: as §1

For `CC(C)(C)[Si](OCCC(F)(F)C(F)(F)C(F)(F)C(F)(F)C(F)(F)C(F)(F)C(F)(F)C(F)(F)F)(OC1CCCCC1)c1ccccc1` (stereo not drawn) [37a, tert-butyl-phenyl-1H,1H,2H,2H-heptadecafluorodecyloxysilyl ether], the “t1/2 under the acidic reaction conditions” value [1] was > 6 h, the “t1/2 under protic acidic conditions” value [2] was ~0.667 h and the “t1/2 in mildly basic aqueous medium” value [3] was 48 h.

— patent US6803475B2, “Fluorous tagging compounds and methods of use thereof” (University of Pittsburgh, priority 2000, dated 2004)
